{
  "source": "paper PMC4635352",
  "about": "“Preventive effect of oral goshajinkigan on chronic oxaliplatin-induced hypoesthesia in rats” (Scientific Reports, 2015)",
  "key": {"[1]": {"test_system": "oxaliplatin-treated rats", "assay": "hot plate test for heat hypoalgesia in oxaliplatin-treated rats", "assay_type": "in vivo, rat", "procedure": "(§1) To establish the oxaliplatin-induced chronic neuropathy rat model, oxaliplatin (4 mg/mL/kg) or its vehicle (5% glucose solution) was injected intraperitoneally twice weekly for 8 wks. Rats were orally administered GJG (0.3 or 1.0 g/10 mL/kg) or DW 5 times a week for 8 wks.\n(§2) Cold hyperalgesia induced by oxaliplatin was assessed by an acetone test[10]. The acetone test was done on days 24, 38 and 52. Briefly, 250 μL of acetone (Wako Pure Chemical Ltd., Osaka, Japan) was sprayed onto the plantar skin of the right hind paw, and the time spent in elevation and licking of the stimulated hind paw for 60 seconds was measured. Acetone was applied twice at a 15-minute interval, and the average withdrawal response time was calculated. A hot plate test was performed for assessment of thermal hyperalgesia on days 25, 39 and 54. Rats were placed in a Hot/Cold Plate Analgesia Meter (MK-350HC; Muromachi Kikai Co., Ltd., Tokyo, Japan) that kept the temperature of the plate at 50 °C. A cut-off time of 45 seconds was set to prevent tissue damage. The latency of withdrawal response, such as licking and flinching of each hind paw, was recorded."}, "[2]": {"assay": "platinum concentration in dorsal root ganglia (ICP-MS)", "assay_type": "in vivo, rat", "settings": "oxaliplatin 4 mg/kg i.p. twice a week; 4 and 8 wks", "procedure": "Lumbar L4-L6 DRG were isolated from each group on days 26 and 54 after oxaliplatin treatment. The tissue samples were pretreated by heating in an acid solution, and the tissue platinum concentration was analyzed using an ICP-MS system (Agilent 7700s; Agilent Technologies, Inc., Santa Clara, CA, USA). The lower limit for quantification of platinum in tissue was 2.0 ng."}, "[3]": {"test_system": "oxaliplatin-treated rats", "assay": "rotarod test of motor coordination", "assay_type": "in vivo, rat", "settings": "8 wks; among the tested groups", "procedure": "as §1\n(§3) A rotarod test was carried out on day 57 to evaluate if chronic treatment of oxaliplatin had any effect on motor coordination. Rats were placed on the rotarod (SN-497; Shinano-Seisakusho Ltd., Tokyo, Japan), which is a horizontal rod 10 cm diameter, with their heads directed against the direction of rotation at 5 rpm. The time that the animal stayed on the rod (up to maximum of 120 seconds) was recorded. A wire hang test was performed for assessment of neuromuscular strength on day 53. Animals were placed on the wire net that was held horizontally. The wire screen was first inclined at 90 ° for 20 seconds, then turned to 180 ° for a further 20 seconds. The latency to fall from the wire net inclined at the respective angles was recorded."}, "[4]": {"test_system": "rat sciatic nerve", "assay": "histological analysis of the sciatic nerve (electron microscopy, ratio of degenerated myelinated fibers)", "assay_type": "in vivo", "settings": "oxaliplatin-treated group; 8 wks; n = 3", "procedure": "as §1\nThe rats were deeply anesthetized with pentobarbital (50 mg/kg), and transcardially perfused with phosphate-buffered saline (pH 7.4), followed by 2.5% phosphate-buffered glutaraldehyde. The sciatic nerves were rapidly dissected, and the samples were kept overnight in the same fixative at 4 °C. The fixed fibers were post-fixed with 1% osmium tetroxide solution for 3 hours, dehydrated in a graded alcohol series, and embedded in Epon815. For light microscopy, semi-thin sections were cut from each block and stained with toluidine blue. The stained sections were observed using a light microscope (BX60, Olympus Corp., Tokyo, Japan). For electron microscopy, ultra-thin sections were cut and stained with uranyl acetate and lead citrate. […] The numbers of normal- and degenerated-myelinated nerve fibers were counted in the area of 0.05 mm^2 (0.01 mm^2 × 5 areas), and the ratio of degenerated nerve fibers was calculated as the percentage of total nerve fibers in each group. In this study, the pathological experts who investigate myelination or demyelination analyzed light and electron microscopy in detail."}, "[5]": {"test_system": "oxaliplatin-treated rats", "assay": "wire hang test of neuromuscular strength", "assay_type": "in vivo, rat", "settings": "wire screen inclined to 90° or 180° for 20 seconds; among groups", "procedure": "as §1, §3"}, "[6]": {"test_system": "oxaliplatin-treated rats", "assay": "acetone test for cold hyperalgesia in oxaliplatin-treated rats", "assay_type": "in vivo, rat", "settings": "oxaliplatin 4 mg/kg i.p. twice weekly; 4, 6 and 8 wks; vs naïve control", "procedure": "as §1, §2"}, "[7]": {"test_system": "oxaliplatin-treated rats", "assay": "peripheral blood flow by two-dimensional laser speckle Blood Flow Imager", "assay_type": "in vivo, rat", "settings": "for peripheral blood flow, Head / peripheral blood flow, Left ear / peripheral blood flow, Left forelimb / peripheral blood flow, Left hindlimb / peripheral blood flow, Right ear / peripheral blood flow, Right forelimb / peripheral blood flow, Right hindlimb / peripheral blood flow, Tail: ratio to naïve rats", "procedure": "as §1\nPeripheral blood flow was measured using a two-dimensional laser speckle Blood Flow Imager (Omegazone OZ-2; Omegawave, Inc., Tokyo, Japan). Rats were anesthetized with isoflurane for induction and urethane intraperitoneally for maintenance. Body temperature was maintained at 37.5 ± 0.5 °C using a heating pad. Blood pressure and heart rate were concurrently measured by a tail-cuff apparatus (BP-98A-L; Softron, Tokyo, Japan). Peripheral blood flow in the head, ears, forelimbs, hindlimbs and tail of rats was measured at four defined time points (day 3, 10, 26 and 54). Values were analyzed by analysis software (LIA-V210, Softron). Real image and color-coded images were obtained in high-resolution mode (639 × 480 pixels; 2 images/second). The blood flow value in each peripheral site is expressed as mean blood flow in the region of interest (ROI). The ratio of blood flow rate of treated animals to naïve animals was calculated (%)."}, "[8]": {"test_system": "neuro2A cells", "settings": "oxaliplatin 30–300 μM, 1 hour", "description": "Mouse neuroblastoma Neuro2A cells (ATCC-CCL 131) were grown in Dulbecco’s MEM (Life Technologies) containing 10% fetal bovine serum with 100 units/mL penicillin and 100 mg/mL streptomycin (Life Technologies). The cells were maintained at 37 °C in a humidified atmosphere with 5% CO2 and 95% air. For measurement of ROS generation, the cells were seeded at 2.0 × 10^4 cells/well in poly-D-lysine-coated 96-well plates (BD Falcon, Franklin Lakes, NJ, USA). After plating, the cells were maintained in Dulbecco’s MEM (without phenol red or serum, Life Technologies) with 100 units/mL penicillin and 100 mg/mL streptomycin for more than 16 hours until subsequent experiments. Intracellular ROS generation caused by oxaliplatin in neuro2A cells was determined using CM-H2DCFDA. […] The cells were incubated for 30 minutes with 10 μM CM-H2DCFDA at 37 °C, followed by treatment of drugs for 1 hour. Fluorescence intensity was measured using a microplate reader (Infinite M200; Tecan Japan Co., Ltd., Kanagawa, Japan) at 485 nm (excitation) /520 nm (emission)."}, "[9]": {"set-up": "method as in PMID 11223836", "settings": "rats, 5 mg/kg oxaliplatin intraperitoneally; cited from earlier work"}, "[10]": {"settings": "day 3, L-OHP 4 mg/kg i.p. twice weekly"}, "[11]": {"settings": "day 10, L-OHP 4 mg/kg i.p. twice weekly"}},
  "data": [
    {"smiles": "O=C1[O][Pt]2([NH][C@@H]3CCCC[C@H]3[NH]2)[O]C1=O", "note": "[oxaliplatin]", "values": [
      {"measurement": "latency of withdrawal to heat stimulation (hot plate)", "setting": "[1]; 4 wks after oxaliplatin treatment, among all groups", "value": "no significant difference"},
      {"measurement": "latency of withdrawal to heat stimulation (hot plate)", "setting": "[1]; oxaliplatin vs naïve control, 6 wks (p < 0.05) and 8 wks (p < 0.01)", "value": "gradually increased"},
      {"measurement": "platinum accumulation in the rat DRG", "setting": "[2]", "value": "directly correlated with the duration of oxaliplatin treatment"},
      {"measurement": "motor coordination (rotarod test)", "setting": "[3]", "value": "no significant differences"},
      {"measurement": "ratio of degenerated axons in total myelinated nerve fibers", "setting": "[4]", "value": "8.8 ± 2.4", "unit": "%"},
      {"measurement": "muscle strength (wire screen hanging test)", "setting": "[5]", "value": "no significant differences"},
      {"measurement": "duration of withdrawal responses to cold stimulation by acetone", "setting": "[6]", "value": "significantly increased"},
      {"measurement": "peripheral blood flow, Head", "setting": "[7]; 4 weeks, L-OHP + DW", "value": "89.9 ± 2.6", "unit": "%"},
      {"measurement": "peripheral blood flow, Left ear", "setting": "[7]; 4 weeks, L-OHP + DW", "value": "95.7 ± 2.9", "unit": "%"},
      {"measurement": "peripheral blood flow, Left forelimb", "setting": "[7]; 4 weeks, L-OHP + DW", "value": "87.3 ± 2.8", "unit": "%"},
      {"measurement": "peripheral blood flow, Left hindlimb", "setting": "[7]; 4 weeks, L-OHP + DW", "value": "82.0 ± 4.5", "unit": "%"},
      {"measurement": "peripheral blood flow, Right ear", "setting": "[7]; 4 weeks, L-OHP + DW", "value": "91.2 ± 3.4", "unit": "%"},
      {"measurement": "peripheral blood flow, Right forelimb", "setting": "[7]; 4 weeks, L-OHP + DW", "value": "89.0 ± 2.7", "unit": "%"},
      {"measurement": "peripheral blood flow, Right hindlimb", "setting": "[7]; 4 weeks, L-OHP + DW", "value": "88.3 ± 5.1", "unit": "%"},
      {"measurement": "peripheral blood flow, Tail", "setting": "[7]; 4 weeks, L-OHP + DW", "value": "100.1 ± 2.2", "unit": "%"},
      {"measurement": "peripheral blood flow, Head", "setting": "[7]; 8 weeks, L-OHP + DW", "value": "93.5 ± 3.8", "unit": "%"},
      {"measurement": "peripheral blood flow, Left ear", "setting": "[7]; 8 weeks, L-OHP + DW", "value": "91.4 ± 3.2", "unit": "%"},
      {"measurement": "peripheral blood flow, Left forelimb", "setting": "[7]; 8 weeks, L-OHP + DW", "value": "97.2 ± 1.5", "unit": "%"},
      {"measurement": "peripheral blood flow, Left hindlimb", "setting": "[7]; 8 weeks, L-OHP + DW", "value": "95.7 ± 4.7", "unit": "%"},
      {"measurement": "peripheral blood flow, Right ear", "setting": "[7]; 8 weeks, L-OHP + DW", "value": "92.3 ± 4.1", "unit": "%"},
      {"measurement": "peripheral blood flow, Right forelimb", "setting": "[7]; 8 weeks, L-OHP + DW", "value": "100.3 ± 2.0", "unit": "%"},
      {"measurement": "peripheral blood flow, Right hindlimb", "setting": "[7]; 8 weeks, L-OHP + DW", "value": "102.3 ± 4.4", "unit": "%"},
      {"measurement": "peripheral blood flow, Tail", "setting": "[7]; 8 weeks, L-OHP + DW", "value": "96.3 ± 3.3", "unit": "%"},
      {"measurement": "peripheral blood flow, Head", "setting": "[7]; [10]", "value": "108.3 ± 2.9", "unit": "%"},
      {"measurement": "peripheral blood flow, Left ear", "setting": "[7]; [10]", "value": "104.8 ± 4.3", "unit": "%"},
      {"measurement": "peripheral blood flow, Left forelimb", "setting": "[7]; [10]", "value": "97.5 ± 3.1", "unit": "%"},
      {"measurement": "peripheral blood flow, Left hindlimb", "setting": "[7]; [10]", "value": "110.2 ± 0.9", "unit": "%"},
      {"measurement": "peripheral blood flow, Right ear", "setting": "[7]; [10]", "value": "101.5 ± 5.6", "unit": "%"},
      {"measurement": "peripheral blood flow, Right forelimb", "setting": "[7]; [10]", "value": "100.8 ± 1.9", "unit": "%"},
      {"measurement": "peripheral blood flow, Right hindlimb", "setting": "[7]; [10]", "value": "114.2 ± 2.1", "unit": "%"},
      {"measurement": "peripheral blood flow, Tail", "setting": "[7]; [10]", "value": "98.8 ± 2.5", "unit": "%"},
      {"measurement": "peripheral blood flow, Head", "setting": "[7]; [11]", "value": "91.9 ± 4.5", "unit": "%"},
      {"measurement": "peripheral blood flow, Left ear", "setting": "[7]; [11]", "value": "85.3 ± 2.2", "unit": "%"},
      {"measurement": "peripheral blood flow, Left forelimb", "setting": "[7]; [11]", "value": "93.1 ± 3.8", "unit": "%"},
      {"measurement": "peripheral blood flow, Left hindlimb", "setting": "[7]; [11]", "value": "85.8 ± 5.0", "unit": "%"},
      {"measurement": "peripheral blood flow, Right ear", "setting": "[7]; [11]", "value": "87.7 ± 2.0", "unit": "%"},
      {"measurement": "peripheral blood flow, Right forelimb", "setting": "[7]; [11]", "value": "91.4 ± 3.1", "unit": "%"},
      {"measurement": "peripheral blood flow, Right hindlimb", "setting": "[7]; [11]", "value": "86.5 ± 6.9", "unit": "%"},
      {"measurement": "peripheral blood flow, Tail", "setting": "[7]; [11]", "value": "90.9 ± 3.4", "unit": "%"},
      {"measurement": "mean blood flow in the fore- and hindlimbs", "setting": "[7]; oxaliplatin, 4 wks", "value": "significantly decreased"},
      {"measurement": "ROS generation in neuro2A cells", "setting": "[8]", "value": "increased ROS generation"},
      {"measurement": "time for which maximum plasma platinum was maintained", "setting": "[9]", "value": 2, "unit": "h"},
      {"measurement": "time to maximum plasma concentration of platinum", "setting": "[9]", "value": "approximately 90 minutes"}
    ]}
  ]
}
